In US12070520B2, “Dermal delivery device” (Agile Therapeutics, Inc., priority 2007, dated 2024):

Assay: Control of loss of volatile components: amounts in the AI patch after storage (gas chromatography)
Type: physicochemical
Description: A transdermal hormone delivery device was prepared comprising an internal backing layer, an AI layer, and a release liner. […] The device also comprised an overlay comprising a polyurethane spun bonded non-woven backing, which is able to absorb large amounts of the volatile excipients, DMSO and ethyl lactate, an acrylic PSA coated onto the polyurethane foam, and a PIB PSA coated on top of the acrylic PSA. […] The release liner was a Mylar polyester film coated with a fluoropolymer release coating. […] The devices were placed in a 25 C or 40 C oven. After 6 weeks and 12 weeks, devices were removed from the oven and the active section of each device was separated from the overlay. […] (12 weeks exposure to 40 C is intended to simulate 18 months exposure to room temperature (25 C)).

Row | Amount in the AI patch (6 wks, 40 C.) [wt %] | Amount in the AI patch (12 wks, 40 C.) [wt %] | Amount in the AI patch (12 wks, room temp) [wt %] | SMILES
1 | 1.66 | 1.57 | 1.79 | CCOC(=O)C(C)O (stereo not drawn) [Ethyl Lactate, ethyl lactate]
2 | 9.02 | 9.20 | 9.10 | CCCCCCCCCCCCOC(=O)C(C)O (stereo not drawn) [Lauryl Lactate, lauryl lactate]
3 | 9.02 | 8.98 | 9.08 | C[S+](C)[O-] [DMSO, dimethyl sulfoxide]
